Assay results from patent publication US12581252B2, “Substituted pyrrolo[3,4-b]pyridines as PI3K-α inhibitors” (Relay Therapeutics, Inc., priority 2020, dated 2026).

Molecular target: H1047R PIK3CA enzyme (Homo sapiens, UniProt P42336, H1047R)
Assay: ADP-Glo Biochemical PIK3CA Kinase Assay

Sequence of H1047R PIK3CA enzyme (P42336 whole entry H1047R): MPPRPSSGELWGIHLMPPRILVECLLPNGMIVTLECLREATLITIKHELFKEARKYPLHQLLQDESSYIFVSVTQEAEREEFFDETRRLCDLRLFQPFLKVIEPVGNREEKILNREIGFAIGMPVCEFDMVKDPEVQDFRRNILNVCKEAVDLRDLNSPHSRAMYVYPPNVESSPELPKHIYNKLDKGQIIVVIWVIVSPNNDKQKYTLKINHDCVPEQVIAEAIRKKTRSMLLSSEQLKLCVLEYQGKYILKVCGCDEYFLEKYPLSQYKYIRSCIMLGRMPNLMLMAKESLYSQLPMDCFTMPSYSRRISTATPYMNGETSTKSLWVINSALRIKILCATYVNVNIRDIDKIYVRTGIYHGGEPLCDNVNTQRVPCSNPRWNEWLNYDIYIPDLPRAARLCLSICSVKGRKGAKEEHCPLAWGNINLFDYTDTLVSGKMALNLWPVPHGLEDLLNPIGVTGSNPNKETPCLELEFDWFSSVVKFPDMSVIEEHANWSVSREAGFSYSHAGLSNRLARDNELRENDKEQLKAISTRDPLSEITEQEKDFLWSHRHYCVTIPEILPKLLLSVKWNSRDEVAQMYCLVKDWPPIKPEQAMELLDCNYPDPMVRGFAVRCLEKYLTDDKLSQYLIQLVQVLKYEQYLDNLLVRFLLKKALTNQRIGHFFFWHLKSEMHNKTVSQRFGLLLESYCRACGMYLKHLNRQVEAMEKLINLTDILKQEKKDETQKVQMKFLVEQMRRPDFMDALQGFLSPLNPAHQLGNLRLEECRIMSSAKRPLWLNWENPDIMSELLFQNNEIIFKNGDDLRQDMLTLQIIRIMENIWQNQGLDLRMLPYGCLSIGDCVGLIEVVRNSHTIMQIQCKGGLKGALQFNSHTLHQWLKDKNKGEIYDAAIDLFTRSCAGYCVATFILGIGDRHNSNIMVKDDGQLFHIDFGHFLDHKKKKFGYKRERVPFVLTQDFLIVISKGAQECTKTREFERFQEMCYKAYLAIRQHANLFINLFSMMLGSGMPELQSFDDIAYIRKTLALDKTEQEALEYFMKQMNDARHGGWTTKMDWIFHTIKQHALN
Sequence of H1047R PIK3CA enzyme (P27986 whole entry partner): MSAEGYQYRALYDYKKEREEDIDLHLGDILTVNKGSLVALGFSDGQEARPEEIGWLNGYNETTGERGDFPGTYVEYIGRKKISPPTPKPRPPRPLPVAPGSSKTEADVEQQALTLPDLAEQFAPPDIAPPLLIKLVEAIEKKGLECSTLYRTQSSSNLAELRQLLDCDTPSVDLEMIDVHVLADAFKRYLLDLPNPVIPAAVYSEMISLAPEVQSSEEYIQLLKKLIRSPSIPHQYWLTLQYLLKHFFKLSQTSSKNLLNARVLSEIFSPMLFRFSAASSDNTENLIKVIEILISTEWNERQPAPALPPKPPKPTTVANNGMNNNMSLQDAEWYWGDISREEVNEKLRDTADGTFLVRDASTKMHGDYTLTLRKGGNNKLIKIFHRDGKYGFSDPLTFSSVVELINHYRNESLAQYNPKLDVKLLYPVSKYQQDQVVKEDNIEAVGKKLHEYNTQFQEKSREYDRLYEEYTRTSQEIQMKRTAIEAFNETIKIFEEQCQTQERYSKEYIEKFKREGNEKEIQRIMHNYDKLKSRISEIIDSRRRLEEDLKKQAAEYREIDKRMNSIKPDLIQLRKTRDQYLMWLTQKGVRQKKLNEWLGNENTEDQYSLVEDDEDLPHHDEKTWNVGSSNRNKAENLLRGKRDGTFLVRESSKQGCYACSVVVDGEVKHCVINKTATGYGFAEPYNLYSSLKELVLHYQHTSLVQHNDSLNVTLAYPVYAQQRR

| IC50 [nM] | SMILES |
| --- | --- |
| 500 to 1000 | O=C(Nc1cc(Br)cc2c1C(c1cc(F)ccc1Cl)NC2=O)c1ccc(F)c(Cl)c1 (stereo not shown) [Compound I-565] |
| 1000 to 10000 | O=C(Nc1cccc2c1[C@@H](c1cc(F)ccc1C(F)F)NC2=O)c1cc(F)cc(C(F)(F)F)c1 [Compound I-169] |
| 10000 to 100000 | O=C1N[C@@H](c2cc(F)ccc2Cl)c2c(NC(=O)[C@H]3C[C@H]3C(F)(F)F)cc(Br)cc21 (racemic) [Compound I-1853] |
| 10000 to 100000 | CC1CN(C(=O)Nc2cc(Br)cc3c2C(c2cc(F)ccc2Cl)NC3=O)CCN1C (racemic) [Compound I-686] |
| ≤ 100 | O=C(Nc1cc(-c2ccc3cncn3c2)cc2c1C(c1cc(F)ccc1Cl)NC2=O)c1cc(F)cc(C(F)(F)F)c1 (stereo not shown) [Compound I-1500] |
| 10000 to 100000 | O=C(Nc1cccc2c1[C@@H](C1CCC(F)(F)CC1)NC2=O)c1cc(F)cc(C(F)(F)F)c1 [Compound I-2072] |
| ≤ 100 | CC(O)(c1ccncc1)c1cc(NC(=O)c2cc(F)cc(C(F)(F)F)c2)c2c(c1)C(=O)NC2c1cc(F)ccc1Cl (stereo not shown) [Compound I-1403] |
| 1000 to 10000 | O=C(Nc1cc(-c2ccncc2F)cc2c1[C@H](c1cc(F)ccc1Cl)NC2=O)c1cc(F)cc(C(F)(F)F)c1 (stereo in doubt) [Compound I-987] |
| ≤ 100 | CS(=O)(=O)Oc1cc(NC(=O)c2cc(F)cc(C(F)(F)F)c2)c2c(c1)C(=O)NC2c1cc(F)ccc1Cl (stereo not shown) [Compound I-1543] |
| 1000 to 10000 | Cc1ccccc1CC1NC(=O)c2cccc(NC(=O)c3cc(F)cc(C(F)(F)F)c3)c21 (stereo not shown) [Compound I-841] |
| 100 to 500 | Cn1ccnc1-c1cc(NC(=O)c2cc(F)cc(C(F)(F)F)c2)c2c(c1)C(=O)NC2c1cc(F)ccc1Cl (racemic) [Compound I-1193] |
| ≤ 100 | O=C1NC(c2cc(F)ccc2Cl)c2c1cccc2-c1nc2c(F)cc(C(F)(F)F)cc2[nH]1 (stereo not shown) [Compound I-1944] |
| ≤ 100 | O=C(Nc1cc(-c2cnc(C(F)(F)F)nc2)cc2c1C(c1cc(F)ccc1Cl)NC2=O)c1cc(F)cc(C(F)(F)F)c1 (stereo not shown) [Compound I-823] |
| 100 to 500 | O=C1NC(c2cc(F)ccc2Cl)c2c(NC(=O)N3CCCC4CCCC43)cc(Br)cc21 (stereo not shown) [Compound I-722] |
| ≤ 100 | O=C(Nc1cccc2c1C(c1cc(F)c(F)cc1C(F)F)NC2=O)c1cc(F)cc(C(F)(F)F)c1 (stereo not shown) [Compound I-330] |
| 500 to 1000 | CC(C)(CN)n1cc(-c2cc(NC(=O)N3C[C@](O)(C(F)(F)F)c4cc(F)ccc43)c3c(c2)C(=O)N[C@@H]3c2cc(F)ccc2Cl)cn1 (single isomer, unassigned) [Compound I-2650] |
| ≤ 100 | CC(C)(O)COc1cc(NC(=O)c2cc(F)cc(Cl)c2)c2c(c1)C(=O)NC2c1cc(F)ccc1Cl (stereo not shown) [Compound I-819] |
| 1000 to 10000 | NCCc1cc(NC(=O)N2C[C@@H](O)c3cc(F)ccc32)c2c(c1)C(=O)N[C@H]2c1cc(F)ccc1Cl (single isomer, unassigned) [Compound I-2446] |
| 1000 to 10000 | O=C1N[C@@H](c2cc(F)ccc2Cl)c2c(NC(=O)N3C[C@](O)(C(F)(F)F)c4cc(F)ccc43)cc(-n3ccnn3)cc21 (single isomer, unassigned) [Compound I-2550] |
| 10000 to 100000 | O=C1NC(c2cc(F)ccc2Cl)c2c(OC3CCOc4ccccc43)cc(-c3ccc4ncnn4c3)cc21 (stereo not shown) [Compound I-2043] |
| 500 to 1000 | Cc1ccccc1C1NC(=O)c2cccc(NC(=O)c3coc4cc(F)ccc34)c21 (stereo not shown) [Compound I-20] |
| 10000 to 100000 | CC1(C2NC(=O)c3cccc(NC(=O)c4cc(F)cc(C(F)(F)F)c4)c32)CCCCC1 (stereo not shown) [Compound I-1917] |

| IC50 [nM] | SMILES |
| --- | --- |
| ≤ 100 | N#C[C@H]1C[C@@H](Oc2cc(NC(=O)c3cc(F)cc(C(F)(F)F)c3)c3c(c2)C(=O)N[C@H]3c2cc(F)ccc2Cl)C1 [Compound I-1334] |
| ≤ 100 | NC(=O)c1cc(NC(=O)c2cc(F)cc(C(F)(F)F)c2)c2c(c1)C(=O)NC2c1cc(F)ccc1Cl (stereo not shown) [Compound I-555] |
| 1000 to 10000 | O=C1NC(c2ccccc2OC(F)(F)F)c2c(NC(=O)c3csc4ccccc34)ccnc21 (stereo not shown) [Compound I-70] |
| 1000 to 10000 | O=C(Nc1cc(Br)cc2c1C(c1cc(F)ccc1Cl)NC2=O)c1ccc(F)c(OC(F)F)c1 (stereo not shown) [Compound I-558] |
| 1000 to 10000 | O=C1NC(c2cc(F)ccc2Cl)c2c(Nc3cn4ccccc4n3)cc(-c3ccc4ncnn4c3)cc21 (stereo not shown) [Compound I-1668] |
| 1000 to 10000 | O=C1N[C@H](c2ccccc2Cl)c2c(NC(=O)N3C[C@](O)(C(F)(F)F)c4cc(F)ccc43)cccc21 (single isomer, unassigned) [Compound I-2687] |
| 10000 to 100000 | O=C1NC(c2cc(F)ccc2Cl)c2c(NC(=O)C3(O)CCCC3)cc(-c3ccc4ncnn4c3)cc21 (stereo not shown) [Compound I-1813] |
| 10000 to 100000 | O=C(Cc1c[nH]c2ccccc12)Nc1cc(Br)cc2c1C(c1cc(F)ccc1Cl)NC2=O (stereo not shown) [Compound I-953] |
| ≤ 100 | O=C(Nc1cc(-n2ccnn2)cc2c1C(c1cc(F)ccc1Cl)NC2=O)c1cc(F)cc(C(F)(F)F)c1 (stereo not shown) [Compound I-2148] |
| ≤ 100 | O=C(Nc1cc(C2CNC2)cc2c1C(c1cc(F)ccc1Cl)NC2=O)c1cc(F)cc(C(F)(F)F)c1 (stereo not shown) [Compound I-654] |
| 10000 to 100000 | O=C(Nc1cccc2c1C(N1CCCCC1)NC2=O)c1cc(F)cc(C(F)(F)F)c1 (stereo not shown) [Compound I-537] |
| ≤ 100 | O=C(Nc1cc(-c2ccc3nc(Cl)nn3c2)cc2c1[C@H](c1cc(F)ccc1Cl)NC2=O)c1cc(F)cc(C(F)(F)F)c1 [Compound I-1693] |
| ≤ 100 | O=C(Nc1cc(-c2cnc3ocnc3c2)cc2c1C(c1cc(F)ccc1Cl)NC2=O)c1cc(F)cc(C(F)(F)F)c1 (stereo not shown) [Compound I-1544] |
| 1000 to 10000 | N#C[C@H]1C[C@@H](Oc2cc(NC(=O)c3cc(F)cc(C(F)(F)F)c3)c3c(c2)C(=O)N[C@@H]3c2cc(F)ccc2Cl)C1 [Compound I-1333] |
| ≤ 100 | Cc1ccc(F)cc1[C@@H]1NC(=O)c2cc(Br)cc(NC(=O)c3cc(F)cc(C(F)(F)F)c3)c21 [Compound I-758] |
| 1000 to 10000 | O=C1N[C@@H](c2cc(F)ccc2Cl)c2c(NC(=O)N3C[C@](O)(C(F)(F)F)c4cc(F)ccc43)ccnc21 (single isomer, unassigned) [Compound I-2701] |
| ≤ 100 | O=C(Nc1cc(OCc2cncnc2)cc2c1C(c1cc(F)ccc1Cl)NC2=O)c1cc(F)cc(C(F)(F)F)c1 (stereo not shown) [Compound I-1735] |
| 500 to 1000 | CC1(Cc2cc(NC(=O)N3CC(O)c4cc(F)ccc43)c3c(c2)C(=O)NC3c2cc(F)ccc2Cl)COC1 (stereo not shown) [Compound I-2490] |
| 10000 to 100000 | O=C1NC(c2cc(F)ccc2Cl)c2c(NC(=O)C3CCc4ccccc4C3)cccc21 (mixture of isomers) [Compound I-2283] |
| 10000 to 100000 | O=C(Nc1cc(OC[C@H]2CCO2)cc2c1[C@@H](c1cc(F)ccc1Cl)NC2=O)c1cc(F)cc(C(F)(F)F)c1 (single isomer, unassigned) [Compound I-1520] |
| 10000 to 100000 | O=C1NC(c2cc(F)ccc2Cl)c2c(NC(=O)N3CCc4ccncc43)cccc21 (stereo not shown) [Compound I-2182] |
| ≤ 100 | C=CC(=O)Nc1cc(NC(=O)c2cc(F)cc(C(F)(F)F)c2)c2c(c1)C(=O)NC2c1cc(F)ccc1Cl (stereo not shown) [Compound I-406] |

| IC50 [nM] | SMILES |
| --- | --- |
| 100 to 500 | Cc1ccccc1C1NC(=O)c2c(CNC(=O)C(F)(F)F)ccc(NC(=O)c3csc4ccccc34)c21 (stereo not shown) [Compound I-223] |
| 10000 to 100000 | O=C1N[C@@H](c2cc(F)ccc2Cl)c2c(N[C@H]3CCOc4ccccc43)cc(Br)cc21 (racemic) [Compound I-2013] |
| ≤ 100 | O=C(Nc1cc(NC(=O)N2CC(F)(F)C2)cc2c1C(c1cc(F)ccc1Cl)NC2=O)c1cc(F)cc(C(F)(F)F)c1 (stereo not shown) [Compound I-513] |
| ≤ 100 | Cn1nccc1Nc1cc(NC(=O)c2cc(F)cc(C(F)(F)F)c2)c2c(c1)C(=O)N[C@H]2c1cc(F)ccc1Cl [Compound I-1144] |
| 10000 to 100000 | C[C@H](CCC(F)(F)F)C(=O)Nc1cccc2c1[C@@H](c1cc(F)ccc1Cl)NC2=O [Compound I-2140] |
| 100 to 500 | COCCNc1cc(NC(=O)c2cc(F)cc(C(F)(F)F)c2)c2c(n1)C(=O)NC2c1cc(F)ccc1Cl (stereo not shown) [Compound I-288] |
| 500 to 1000 | O/N=C(\Nc1cccc2c1C(c1cc(F)ccc1Cl)NC2=S)c1cc(F)cc(C(F)(F)F)c1 (stereo not shown) [Compound I-846] |
| ≤ 100 | O=C(Nc1cc(-c2ccc3ncnn3c2)cc2c1[C@H](c1cc(F)ccc1Cl)NC2=O)c1cc(F)cc(Cl)c1 (stereo in doubt) [Compound I-1165] |
| ≤ 100 | Cn1cc(-c2cc(NC(=O)c3cc(F)cc(C(F)(F)F)c3)c3c(c2)C(=O)N[C@H]3c2cc(F)ccc2Cl)ccc1=O (single isomer, unassigned) [Compound I-702] |
| ≤ 100 | CS(=O)(=O)Cn1cc(-c2cc(NC(=O)c3cc(F)cc(C(F)(F)F)c3)c3c(c2)C(=O)NC3c2cc(F)ccc2Cl)cn1 (stereo not shown) [Compound I-1336] |
| 10000 to 100000 | O=C(Nc1cccc2c1C(C(=O)N1CCCCC1)NC2=O)c1cc(F)cc(C(F)(F)F)c1 (stereo not shown) [Compound I-2041] |
| 100 to 500 | O=C(Nc1cc(O[C@H]2CC[C@@H]2O)cc2c1C(c1cc(F)ccc1Cl)NC2=O)c1cc(F)cc(C(F)(F)F)c1 (mixture of isomers) [Compound I-1289] |
| ≤ 100 | Nc1ncc(-c2cc(NC(=O)c3cc(F)cc(C(F)(F)F)c3)c3c(c2)C(=O)NC3c2cc(F)ccc2Cl)cn1 (stereo not shown) [Compound I-885] |
| 10000 to 100000 | CC(C)(O)c1cc(NC(=O)N2CCc3ccccc32)c2c(c1)C(=O)N[C@@H]2c1cc(F)ccc1Cl [Compound I-714] |
| ≤ 100 | CC(C)Oc1cc(NC(=O)c2cc(F)cc(C(F)(F)F)c2)c2c(c1)C(=O)NC2c1cc(F)ccc1Cl (stereo not shown) [Compound I-1253] |
| 10000 to 100000 | O=C(Nc1cccc2c1C(C1CCC(O)CC1)NC2=O)c1cc(F)cc(C(F)(F)F)c1 (stereo not shown) [Compound I-1835] |
| 500 to 1000 | N[C@]1(C(F)(F)F)CN(C(=O)Nc2cccc3c2[C@H](c2cc(F)ccc2Cl)NC3=O)c2ccc(F)cc21 (single isomer, unassigned) [Compound I-2472] |
| ≤ 100 | O=C(Nc1cc(-c2cnn(S(=O)(=O)C(F)F)c2)cc2c1C(c1cc(F)ccc1Cl)NC2=O)c1cc(F)cc(C(F)(F)F)c1 (stereo not shown) [Compound I-2055] |
| 100 to 500 | Cc1ccccc1C1NC(=O)c2cccc(NC(=O)N3CCc4ccc(F)cc43)c21 (stereo not shown) [Compound I-96] |
| ≤ 100 | O=C1NC[C@@H](c2cc(NC(=O)c3cc(F)cc(C(F)(F)F)c3)c3c(c2)C(=O)N[C@H]3c2cc(F)ccc2Cl)O1 (single isomer, unassigned) [Compound I-1562] |
